Source: PubChem BioAssay (NCI)
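Step 1: Grow cells in 96-well plates. Step 2: Expose to compound for 48 hours at 5 concentrations. Step 3: Interpolate endpoints linearly; if unreached, use highest concentration. TGI: concentration producing complete growth inhibition.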

What was measured:
Experiment in all cases: growth of human tumour cells (NCI), 48 h
786-0 renal = system: 786-0 renal
A498 renal = system: A498 renal
A549 NSCLC = system: A549 NSCLC
ACHN renal = system: ACHN renal
BT-549 breast = system: BT-549 breast
CAKI-1 renal = system: CAKI-1 renal
CCRF-CEM leukemia = system: CCRF-CEM leukemia
COLO 205 colon = system: COLO 205 colon
DU-145 prostate = system: DU-145 prostate
EKVX NSCLC = system: EKVX NSCLC
HCC-2998 colon = system: HCC-2998 colon
HCT-116 colon = system: HCT-116 colon
HCT-15 colon = system: HCT-15 colon
HL-60(TB) leukemia = system: HL-60(TB) leukemia
HOP-62 NSCLC = system: HOP-62 NSCLC
HOP-92 NSCLC = system: HOP-92 NSCLC
HS 578T breast = system: HS 578T breast
HT29 colon = system: HT29 colon
IGROV1 ovarian = system: IGROV1 ovarian
K-562 leukemia = system: K-562 leukemia
KM12 colon = system: KM12 colon
LOX IMVI melanoma = system: LOX IMVI melanoma
M14 melanoma = system: M14 melanoma
MALME-3M melanoma = system: MALME-3M melanoma
MCF7 breast = system: MCF7 breast
MDA-MB-231 breast = system: MDA-MB-231 breast
MDA-MB-435 = system: MDA-MB-435
MDA-N = system: MDA-N
MOLT-4 leukemia = system: MOLT-4 leukemia
NCI-H226 lung = system: NCI-H226 lung
NCI-H23 lung = system: NCI-H23 lung
NCI-H460 lung = system: NCI-H460 lung
NCI-H522 lung = system: NCI-H522 lung
NCI/ADR-RES ovarian = system: NCI/ADR-RES ovarian
OVCAR-3 ovarian = system: OVCAR-3 ovarian
OVCAR-4 ovarian = system: OVCAR-4 ovarian
OVCAR-5 ovarian = system: OVCAR-5 ovarian
OVCAR-8 ovarian = system: OVCAR-8 ovarian
PC-3 prostate = system: PC-3 prostate
RPMI-8226 leukemia = system: RPMI-8226 leukemia
SF-268 CNS = system: SF-268 CNS
SF-295 CNS = system: SF-295 CNS
SF-539 CNS = system: SF-539 CNS
SK-MEL-2 melanoma = system: SK-MEL-2 melanoma
SK-MEL-28 melanoma = system: SK-MEL-28 melanoma
SK-MEL-5 melanoma = system: SK-MEL-5 melanoma
SK-OV-3 ovarian = system: SK-OV-3 ovarian
SN12C renal = system: SN12C renal
SNB-19 CNS = system: SNB-19 CNS
SR leukemia = system: SR leukemia
SW-620 colon = system: SW-620 colon
T-47D breast = system: T-47D breast
TK-10 renal = system: TK-10 renal
U251 CNS = system: U251 CNS
UACC-257 melanoma = system: UACC-257 melanoma
UACC-62 melanoma = system: UACC-62 melanoma
UO-31 renal = system: UO-31 renal

O=C1CSC(c2cccc(Cl)c2)N1c1ccc(-c2ccc(-n3c(-c4ccccc4)nc4ccccc4c3=O)cc2)cc1 (configuration not stated)
TGI (786-0 renal): > 100 µM | TGI (A498 renal): > 100 µM | TGI (A549 NSCLC): > 100 µM | TGI (ACHN renal): > 100 µM | TGI (BT-549 breast): 80.3 µM | TGI (CAKI-1 renal): > 100 µM | TGI (CCRF-CEM leukemia): > 100 µM | TGI (COLO 205 colon): > 100 µM | TGI (DU-145 prostate): > 100 µM | TGI (EKVX NSCLC): > 100 µM | TGI (HCC-2998 colon): > 100 µM | TGI (HCT-116 colon): > 100 µM | TGI (HCT-15 colon): > 100 µM | TGI (HL-60(TB) leukemia): > 100 µM | TGI (HOP-62 NSCLC): > 100 µM | TGI (HOP-92 NSCLC): 56.5 µM | TGI (HS 578T breast): > 100 µM | TGI (HT29 colon): > 100 µM | TGI (IGROV1 ovarian): > 100 µM | TGI (K-562 leukemia): > 100 µM | TGI (KM12 colon): > 100 µM | TGI (LOX IMVI melanoma): > 100 µM | TGI (M14 melanoma): > 100 µM | TGI (MALME-3M melanoma): > 100 µM | TGI (MCF7 breast): > 100 µM | TGI (MDA-MB-231 breast): > 100 µM | TGI (MDA-MB-435): > 100 µM | TGI (MDA-N): > 100 µM | TGI (MOLT-4 leukemia): > 100 µM | TGI (NCI-H226 lung): > 100 µM | TGI (NCI-H23 lung): > 100 µM | TGI (NCI-H460 lung): > 100 µM | TGI (NCI-H522 lung): > 100 µM | TGI (NCI/ADR-RES ovarian): > 100 µM | TGI (OVCAR-3 ovarian): > 100 µM | TGI (OVCAR-4 ovarian): > 100 µM | TGI (OVCAR-5 ovarian): > 100 µM | TGI (OVCAR-8 ovarian): > 100 µM | TGI (PC-3 prostate): > 100 µM | TGI (RPMI-8226 leukemia): > 100 µM | TGI (SF-268 CNS): > 100 µM | TGI (SF-295 CNS): > 100 µM | TGI (SF-539 CNS): > 100 µM | TGI (SK-MEL-2 melanoma): > 100 µM | TGI (SK-MEL-28 melanoma): > 100 µM | TGI (SK-MEL-5 melanoma): 84.4 µM | TGI (SK-OV-3 ovarian): > 100 µM | TGI (SN12C renal): > 100 µM | TGI (SNB-19 CNS): > 100 µM | TGI (SR leukemia): > 100 µM | TGI (SW-620 colon): > 100 µM | TGI (T-47D breast): 97.9 µM | TGI (TK-10 renal): > 100 µM | TGI (U251 CNS): > 100 µM | TGI (UACC-257 melanoma): > 100 µM | TGI (UACC-62 melanoma): > 100 µM | TGI (UO-31 renal): 84.1 µM
